Laboratory results as given in ChEMBL document CHEMBL5143608, “Peptide-based long-acting co-agonists of GLP-1 and cholecystokinin 1 receptors as novel anti-diabesity agents” (Eur J Med Chem, 2022).
Calls of active or inactive are those of the source. The rule behind the calls is not given here. *1 amine or outer side, *2 acyl side, *3 side chain or, on linkers, in order; H or OH if unused. Where a SMILES comes first, the peptide text is derived from it. Side-chain parts run from the residue outwards. [ ]: non-standard residue; d: D form. The star is where a group is joined. ξ: configuration not given here. γGlu = O=C(O)[C@H](CCC(=O)[*:2])N[*:1]; Palmitoyl = CCCCCCCCCCCCCCCC(=O)*; ξpGlu = O=C1CCC(C(=O)O)N1; Aib = CC(C)(N)C(=O)O

Tests used:
Mus musculus [1] = experiment: Anti-diabesity activity against high fat diet-induced DIO C57BL/6 mouse model assessed as reduction in fat mass accumulation at 25 nmol/kg, sc administered for 2 weeks and measured on day 15 by NMR analysis; format: functional, organism-based; conditions: time 15.0 day
Mus musculus [2] = experiment: Anorectic activity in ICR mouse assessed as decrease in food intake at 25 nmol/kg, ip and measured after 9 hrs; format: functional, organism-based
Mus musculus [3] = experiment: Hypoglycemic activity in ICR mouse assessed as improvement in glucose tolerance at 25 nmol/kg, ip administered 30 min before oral glucose administration and measured upto 120 mins by OGTT; format: functional, organism-based
Mus musculus [4] = experiment: Anorectic activity in ICR mouse assessed as decrease in food intake at 25 nmol/kg, ip and measured after 24 hrs; format: functional, organism-based
Mus musculus [5] = experiment: Anti-diabesity activity against high fat diet-induced DIO C57BL/6 mouse model assessed as decrease in body weight at 25 nmol/kg, sc administered for 2 weeks; format: functional; conditions: C57BL/6, 336 h, time 14 day
Mus musculus [6] = experiment: Anti-diabesity activity against high fat diet-induced DIO C57BL/6 mouse model assessed as reduction in food intake at 25 nmol/kg, sc administered for 2 weeks; format: functional, organism-based; conditions: time 14.0 day
[7] = biological target: T1, Gastrin/cholecystokinin type B receptor (Homo sapiens, UniProt P32239); experiment: Agonist activity at human CCK2R expressed in HEK293 cells assessed as ERK1/2 phosphorylation incubated for 5 mins by AlphaScreen assay; format: functional, cell-based
T1 sequence (P32239 whole entry): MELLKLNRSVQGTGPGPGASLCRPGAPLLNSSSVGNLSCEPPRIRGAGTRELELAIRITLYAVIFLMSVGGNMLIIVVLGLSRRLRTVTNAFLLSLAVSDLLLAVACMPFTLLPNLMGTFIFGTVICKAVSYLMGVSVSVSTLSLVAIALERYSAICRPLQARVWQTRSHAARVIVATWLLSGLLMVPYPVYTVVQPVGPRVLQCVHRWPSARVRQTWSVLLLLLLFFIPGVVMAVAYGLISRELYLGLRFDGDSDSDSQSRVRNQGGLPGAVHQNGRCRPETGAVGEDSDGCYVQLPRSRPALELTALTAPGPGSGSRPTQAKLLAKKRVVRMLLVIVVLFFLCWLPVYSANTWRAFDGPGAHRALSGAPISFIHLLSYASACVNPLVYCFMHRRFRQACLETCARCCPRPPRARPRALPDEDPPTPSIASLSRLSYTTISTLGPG

[8] = biological target: T2, Cholecystokinin receptor type A (Homo sapiens, UniProt P32238); experiment: Agonist activity at human CCK1R expressed in HEK293 cells assessed as ERK1/2 phosphorylation incubated for 5 mins by AlphaScreen assay; format: functional, cell-based
T2 sequence (P32238 whole entry): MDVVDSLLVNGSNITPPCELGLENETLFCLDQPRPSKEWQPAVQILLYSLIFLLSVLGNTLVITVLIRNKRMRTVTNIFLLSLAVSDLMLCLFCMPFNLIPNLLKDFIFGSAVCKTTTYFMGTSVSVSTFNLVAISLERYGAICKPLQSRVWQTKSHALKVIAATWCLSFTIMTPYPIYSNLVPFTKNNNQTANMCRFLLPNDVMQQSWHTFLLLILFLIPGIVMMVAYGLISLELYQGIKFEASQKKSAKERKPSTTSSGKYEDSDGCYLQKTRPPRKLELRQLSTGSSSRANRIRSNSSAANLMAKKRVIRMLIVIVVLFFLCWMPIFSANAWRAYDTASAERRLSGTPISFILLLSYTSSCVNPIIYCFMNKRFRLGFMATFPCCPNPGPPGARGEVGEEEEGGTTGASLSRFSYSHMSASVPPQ

## CCCCCCCCCCCCCCCC(=O)N[C@@H](CCC(=O)NCCCC[C@H](NC(=O)[C@H](C)NC(=O)[C@H](C)NC(=O)[C@H](CCC(=O)O)NC(=O)[C@H](CCC(=O)O)NC(=O)[C@H](CCC(=O)O)NC(=O)[C@H](CC(C)C)NC(=O)[C@@H](NC(=O)[C@H](CCC(=O)O)NC(=O)[C@@H](NC(=O)[C@@H](NC(=O)[C@H](CC(=O)O)NC(=O)[C@H](CC(N)=O)NC(=O)[C@@H](NC(=O)[C@H](Cc1ccc(O)cc1)NC(=O)[C@@H](NC(=O)CNC(=O)[C@H](CCC(=O)O)NC(=O)C(C)(C)NC(=O)[C@@H](N)Cc1cnc[nH]1)[C@@H](C)O)[C@@H](C)O)C(C)C)[C@@H](C)O)[C@@H](C)O)C(=O)N[C@@H](CCC(=O)O)C(=O)N[C@@H](Cc1ccccc1)C(=O)N[C@H](C(=O)N[C@@H](CCC(=O)O)C(=O)N[C@@H](Cc1c[nH]c2ccccc12)C(=O)N[C@@H](CC(C)C)C(=O)N[C@H](C(=O)N[C@@H](CCCCN)C(=O)NCC(=O)N[C@@H](CCCCN)C(N)=O)[C@@H](C)CC)[C@@H](C)CC)C(=O)O (H-H[Aib]EGTYTNDVTETLEEEAAK([γGlu-Palmitoyl])EFIEWLIKGK-NH2)
Mus musculus [1]
  Activity: Active
Mus musculus [2]
  Activity: Active
Mus musculus [3]
  Activity: Active
Mus musculus [4]
  Activity: Active
Mus musculus [5]
  inhibition in vivo at 0.025 µmol/kg: 12.1%
Mus musculus [6]
  Activity: Active

## CC(C)C[C@H](NC(=O)[C@H](Cc1c[nH]c2ccccc12)NC(=O)CNC(=O)[C@H](Cc1ccc(O)cc1)NC(=O)[C@H](C)NC(=O)[C@H](CCC(=O)O)NC(=O)[C@H](CCC(=O)O)NC(=O)[C@H](CCC(=O)O)NC(=O)[C@H](CCC(=O)O)NC(=O)[C@H](CCC(=O)O)NC(=O)[C@H](CC(C)C)NC(=O)[C@H](Cc1c[nH]c2ccccc12)NC(=O)[C@@H]1CCCN1C(=O)CNC(=O)C1CCC(=O)N1)C(=O)N[C@@H](CC(=O)O)C(=O)N[C@@H](Cc1ccccc1)C(N)=O (stereo partly drawn) ([ξpGlu]GPWLEEEEEAYGWLDF-NH2)
[7]
  EC50: 2.4 nM
[8]
  EC50: > 100 nM
